Data as given in the NIST ThermoML archive (doi:10.1021/je050366x).

Experiment: xn = mol fraction of the nth substance listed
Details: for mass density: 100 kPa, Liquid, Pycnometric method

CC(=O)[C@H]1C[C@@H](CC(=O)O)C1(C)C [cis-pinonic acid] + O
Ring tensiometer, x1 = 0.00035
Details | surface tension liquid-gas [mN/m]
280.7 K | 61.7
282.5 K | 61.6
283.6 K | 61.6
283.8 K | 61.4
284.4 K | 61.3
285.4 K | 61.5
287.5 K | 61.1
288 K | 60.8
288.8 K | 60.8
289.1 K | 60.9
291.9 K | 60.4
292.5 K | 60.7
292.9 K | 60.5
293.9 K | 60.2
296.8 K | 60.1
297.1 K | 60.2
298.1 K | 59.7
301.2 K | 59.4
301.7 K | 59.9
302.1 K | 59.1

298 K
Details | mass density [kg/m3] | surface tension liquid-gas [mN/m]
x1 = 2e-05 | – | 69.5
x1 = 4e-05 | – | 66.8
x1 = 0.00011 | – | 64.4
x1 = 0.00018 | 995 | 61.4
x1 = 0.00024 | – | 61.2
x1 = 0.00025 | 993 | –
x1 = 0.00033 | 995 | –
x1 = 0.00034 | – | 59
x1 = 0.00041 | 997 | 57.2
x1 = 0.0005 | 996 | 56.3
x1 = 0.00058 | 994 | 55.8
x1 = 0.00065 | – | 56.2
x1 = 0.00066 | 994 | –
x1 = 0.00083 | 997 | 53.9

O=C(O)CC(=O)O [propanedioic acid] + O
Ring tensiometer
Details | surface tension liquid-gas [mN/m]
278.1 K, x1 = 0.06 | 66.5
279.3 K, x1 = 0.06 | 66
279.7 K, x1 = 0.06 | 65.9
282.6 K, x1 = 0.06 | 66
285 K, x1 = 0.06 | 65.7
286.5 K, x1 = 0.06 | 65.6
287.8 K, x1 = 0.06 | 65.4
288.7 K, x1 = 0.06 | 65.2
289.6 K, x1 = 0.06 | 65.3
290.9 K, x1 = 0.06 | 64.6
291.1 K, x1 = 0.06 | 65
293 K, x1 = 0.06 | 64.6
295.3 K, x1 = 0.06 | 64.7
296.7 K, x1 = 0.06 | 64.1
297.1 K, x1 = 0.06 | 64.1
298 K, x1 = 0.01 | 69.2
298 K, x1 = 0.017 | 68.5
298 K, x1 = 0.025 | 66.7
298 K, x1 = 0.033 | 66.7
298 K, x1 = 0.04 | 65.6
298 K, x1 = 0.05 | 65.6
298 K, x1 = 0.055 | 65.5
298 K, x1 = 0.065 | 65
298 K, x1 = 0.07 | 64.2
298 K, x1 = 0.08 | 63.5
298 K, x1 = 0.088 | 64.2
298 K, x1 = 0.094 | 63.5
298 K, x1 = 0.107 | 62.7
298 K, x1 = 0.122 | 62.3
298 K, x1 = 0.137 | 62.2
298 K, x1 = 0.149 | 62.6
298 K, x1 = 0.158 | 62.2
298.2 K, x1 = 0.06 | 63.8
299 K, x1 = 0.06 | 63.6
299.1 K, x1 = 0.06 | 63.9
301.2 K, x1 = 0.06 | 64
303.3 K, x1 = 0.06 | 63

298 K
Details | mass density [kg/m3]
x1 = 0.009 | 1016
x1 = 0.03 | 1054
x1 = 0.041 | 1068
x1 = 0.055 | 1090
x1 = 0.069 | 1108
x1 = 0.085 | 1129
x1 = 0.102 | 1152
x1 = 0.147 | 1196

O=C(O)C(=O)O [ethanedioic acid] + O
Ring tensiometer, x1 = 0.00716
Details | surface tension liquid-gas [mN/m]
280.2 K | 73.7
280.5 K | 73.7
281.1 K | 73.8
281.2 K | 73.7
283.9 K | 73.3
284.5 K | 73.2
285.1 K | 73.2
285.7 K | 73
288.2 K | 72.7
288.7 K | 72.4
289.7 K | 72.6
290.1 K | 72.4
292.2 K | 72
293 K | 71.9
293.7 K | 71.9
294.3 K | 71.7
296.2 K | 71.3
297.5 K | 71.2
298 K | 71.2
298.5 K | 71.1
301.2 K | 70.4
302.1 K | 70.6
302.8 K | 70.3
304.7 K | 70

298 K
Details | mass density [kg/m3]
x1 = 0.002 | 996
x1 = 0.003 | 1001
x1 = 0.005 | 1008
x1 = 0.007 | 1012
x1 = 0.008 | 1016
x1 = 0.01 | 1019
x1 = 0.012 | 1026
x1 = 0.013 | 1030
x1 = 0.015 | 1034
